Efficacy and logP data for five compounds are collected here from patent US9545105B2, “1-(heterocyclic carbonyl) piperidines” (BAYER INTELLECTUAL PROPERTY GMBH, priority 2010, dated 2017).

Structures are written as SMILES.

Series [1] relates to Venturia inaequalis. The experiment in a line: In vivo preventive test on Venturia inaequalis (apple scab). To be noted: 100 ppm of active ingredient, evaluated 10 days after inoculation. As to the method: Solvent: 24.5 parts by weight of acetone • 24.5 parts by weight of N,N-dimethylacetamide Emulsifier: 1 part by weight of alkylaryl polyglycol ether To produce a suitable preparation of active compound, 1 part by weight of active compound is mixed with the stated amounts of solvent and emulsifier, and the concentrate is diluted with water to the desired concentration. To test for preventive activity, young plants are sprayed with the preparation of active compound at the stated rate of application. After the spray coating has dried on, the plants are inoculated with an aqueous conidia suspension of the causal agent of apple scab (Venturia inaequalis) and then remain for 1 day in an incubation cabinet at approximately 20° C. and a relative atmospheric humidity of 100%. The plants are then placed in a greenhouse at approximately 21° C. and a relative atmospheric humidity of approximately 90%. The test is evaluated 10 days after the inoculation. 0% means an efficacy which corresponds to that of the untreated control, while an efficacy of 100% means that no disease is observed.

Series [2] concerns Leptosphaeria nodorum. The experiment in a line: In vivo preventive test on Leptosphaeria nodorum (wheat). Conditions: 500 ppm of active ingredient, evaluated 8 days after inoculation. How it is done: Solvent: 49 parts by weight of N,N-dimethylacetamide Emulsifier: 1 part by weight of alkylaryl polyglycol ether To produce a suitable preparation of active compound, 1 part by weight of active compound or active compound combination is mixed with the stated amounts of solvent and emulsifier, and the concentrate is diluted with water to the desired concentration. To test for preventive activity, young plants are sprayed with the preparation of active compound or active compound combination at the stated rate of application. After the spray coating has been dried, the plants are sprayed with a spore suspension of Leptosphaeria nodorum. The plants remain for 48 hours in an incubation cabinet at approximately 20° C. and a relative atmospheric humidity of approximately 100%. The plants are placed in the greenhouse at a temperature of approximately 22° C. and a relative atmospheric humidity of approximately 80%. The test is evaluated 8 days after the inoculation. 0% means an efficacy which corresponds to that of the untreated control, while an efficacy of 100% means that no disease is observed.

The nature of series [3]: log P by HPLC on reversed-phase column (C 18), EEC Directive 79/831 Annex V.A8. The series is classed as physicochemical. To be noted: HPLC on reversed-phase column (C 18); 40° C.; 0.1% aqueous formic acid and acetonitrile; linear gradient 10% to 90% acetonitrile. The essentials: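 Retention times were converted to log P by linear interpolation between two successive unbranched alkan-2-ones (3 to 16 carbon atoms) of known log P used for calibration. Elution ran at 40° C with a linear gradient from 10% to 90% acetonitrile against 0.1% aqueous formic acid.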

The subject of series [4] is Sphaerotheca fuliginea. Kind of series: In vivo preventive test on Sphaerotheca fuliginea (cucumber). Conditions: 500 ppm of active ingredient, evaluated 7 days after inoculation. The essentials: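 Active compound in DMF with alkylarylpolyglycolether emulsifier, diluted in water and sprayed on young cucumber plants at the stated rate. One day later, plants inoculated with S. fuliginea spore suspension and kept at about 23 °C, 70% RH; efficacy scored 7 days post-inoculation, 0% = untreated, 100% = no disease.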

The test system of series [5] is Pyrenophora teres. Kind of series: In vivo preventive test on Pyrenophora teres (barley). To be noted: 500 ppm of active ingredient, evaluated 7-9 days after inoculation. The essentials: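 Young barley plants sprayed with compound in DMF/alkylaryl polyglycol ether emulsion; inoculated with P. teres spores one day later. 48 h at 22 °C, 100% humidity, then greenhouse ~20 °C, ~80% humidity; efficacy scored 7-9 days post-inoculation, 0% = untreated, 100% = no disease.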

For series [6], the system named is Septoria tritici. The experiment in a line: In vivo preventive test on Septoria tritici (wheat). Conditions: 500 ppm of active ingredient, evaluated 21 days after inoculation.
Series [7] deals with Fusarium nivale (var. majus). Kind of series: In vivo preventive test on Fusarium nivale (wheat). To be noted: 500 ppm of active ingredient, evaluated 5 days after inoculation. How it is done: Solvent: 49 parts by weight of N,N-dimethylacetamide Emulsifier: 1 part by weight of alkylaryl polyglycol ether To produce a suitable preparation of active compound, 1 part by weight of active compound or active compound combination is mixed with the stated amounts of solvent and emulsifier, and the concentrate is diluted with water to the desired concentration. To test for preventive activity, young plants are sprayed with the preparation of active compound or active compound combination at the stated rate of application. After the spray coating has been dried, the plants are slightly injured by using a sandblast and afterwards they are sprayed with a conidia suspension of Fusarium nivale (var. majus). The plants are placed in the greenhouse under a translucent incubation cabinet at a temperature of approximately 10° C. and a relative atmospheric humidity of approximately 100%. The test is evaluated 5 days after the inoculation. 0% means an efficacy which corresponds to that of the untreated control, while an efficacy of 100% means that no disease is observed.

`Cc1cc(C)cc(C2CCCCN2C(=O)c2c(C)nn(C)c2F)c1` (stereo not drawn) [Example 10]: the Efficacy in series [1] came to 100%; in series [2] it was 71%; in series [4], 95%; in series [5] it was 100%; in series [6] it was 70%; in series [7], 88%. Further, the logP (as a rule, a log measure of how a compound divides between an organic and an aqueous phase) in series [3] is reported as 3.23.

`CCc1nn(C)c(F)c1C(=O)N1CCCCC1c1cc(C)cc(C)c1` (stereo not drawn) [Example 11]: the Efficacy in series [1] was 100%; in series [4], 95%; in series [5] it was 100%; in series [6], 100%; in series [7], 83%. In series [3], this compound had a logP of 3.62.

Regarding `CCc1nn(C)c(F)c1C(=O)N1CCCCC1c1ccc(Cl)cc1` (stereo not drawn) [Example 54], the Efficacy in series [1] is given as 98%; in series [2], 100%; in series [5], 100%; in series [6], 100%; in series [7], 71%. Moreover, the logP in series [3] was found to be 3.35.

Turning to `CCC(c1ccccc1)C1CCCCN1C(=O)c1c(C(F)F)nn(C)c1F` (stereo not drawn) [Example 136], the Efficacy in series [1] was 100%; in series [2], 100%; in series [4] it was 98%; in series [5], 100%; in series [6] it was 100%; in series [7], 86%. Also, in series [3], the logP amounted to 3.59.

`CCC(c1ccccc1)C1CCCCN1C(=S)c1c(C(F)F)nn(C)c1F` (stereo not drawn) [Example 140]: the Efficacy in series [1] was determined as 100%; in series [2], 93%; in series [4], 100%; in series [5], 100%; in series [6] it was 100%; in series [7], 71%. Further, in series [3], the logP was found to be 4.39.
